# According to patent US9211278B2, “Composition containing arylnaphthalene lignan derivative for preventing and/or treating dementia” (KOREA INSTITUTE OF SCIENCE AND TECHNOLOGY, priority 2012, dated 2015):
# What was measured:
# male ICR mouse [1] = test: Novel object recognition test, scopolamine-impaired memory model; type: in vivo; conditions: oral, 10 mg/kg and 20 mg/kg; compared with 2 mg/kg Donepezil
# Method: The male ICR mouse was 5 to 6-week age (25˜30 g of body weight) (Orientbio Inc., Seougnam, Republic of Korea), and was raised with solid feed and tap water for 1 week before being used for test. For 3 days before the test, each mouse to get adjusted to Arena (grey mat acryl material, 50 cm×50 cm×60 cm) went freely into the Arena for 10 minutes per a day.
# At a first day, the normal control group and the group administered by the scopolamine were fed with 5% (v/v) DMSO-saline, the test group was orally administered by 1, 5, 10 and 20 mg/kg/10 ml of Justicidin A (C1) in 5% DMSO-Saline, and the comparative group was administered with 2 mg/kg/10 ml of Donepezil (brand name: Aricept, Eisai) being commercially available as a drug for treating an dementia of the Alzheimer's type. After 30 minutes, the groups were intraperitoneally injected by scopolamine (Sigma-Aldrich Chemical Co., St Louis, USA) at 1 mg/kg/10 ml. […]
# At the second day, the mice were dropped into the Arena without treatment of additional drug and scopolamine. […] Entire test was automatically recorded and analyzed with Noldus Ethovision 7.0 program (Noldus Information Technology, USA). The time when the mice sought the object in 3 minutes after dropping two objects at second day of test were measured and calculated as Memory Index (%, ratio of time for Novel object recognition to entire time for recognition). […]
# [2] = test system: beta-amyloid (Aβ40, Aβ42) formation; test: Beta-amyloid (Aβ40, Aβ42) formation, ELISA, in APP-transfected HeLa cells; type: cell-based, human; conditions: HeLa-APP cells, various concentrations (FIGS. 1, 2, 6)
# Method: To test the inhibitory effect of Justicidin A (C1) obtained in Example 2 on the beta-amyloid formation, HeLa cell line transfected with the amyloid precursor protein (APP) driven from human was cultured in DMEM solution (Cat. #11995, Gibco, USA) for use. The cell line was received from Prof. Tae-Wan Kim at Department of Pathology, Columbia University Medical Center, New York, N.Y. 10032, USA.
# Specifically, the Justicidin A of Example 2 was added into the cell line culture at the amount indicated in FIG. 1, and then the produced amount of be-amyloid (Aβ40, Aβ42 was measured. Human β-Amyloid[1-40](Aβ40), Human β-Amyloid [1-42](Aβ42) Colorimetric ELISA kit (#KHB3482 and #KHB3442; BioSource International, Inc., U.S.A.) were used to quantify two types of beta-amyloid (Aβ40, Aβ42).
# The 5-methoxyJusticidin A (C2) of Example 2 was added into the cell line culture at the amount indicated in FIG. 2, and then the produced amount of be-amyloid was measured according to the method of Example 1.1. The group which was not treated with 5-methoxyjusticidin A was used as a negative control.
# The compounds were used at the amount of FIG. 6, and measured for the beta-amyloid (Aβ40, Aβ42) formation according to the same method of Experimental Example <1-1>. The group treated with Justicidin A(C1) was a positive control and the group with no treatment was a negative control.
# male ICR mouse [3] = test: Morris water maze test, scopolamine-impaired memory model; type: in vivo; conditions: oral, 1, 5, 10 and 20 mg/kg, compared to scopolamine group
# Method: The male ICR mouse was 5 to 6-week age (25-30 g of body weight) (Orientbio Inc., Seougnam, Republic of Korea), and was raised with solid feed and tap water for 1 week before being used for test. At a first day, the normal control group and the group administered by the scopolamine were fed with 5% (v/v) DMSO-saline, the test group was orally administered by 1, 5, 10 and 20 mg/kg/10 ml of Justicidin A (C1) in 5% DMSO-Saline, and the comparative group was administered with 2 mg/kg/10 ml of Donepezil (brand name: Aricept, Eisai) being commercially available as a drug for treating an dementia of the Alzheimer's type. […]
# The same test was performed repetitively twice per a day for 4 days as an Acquisition Test, and the entire test was automatically recorded and analyzed with Noldus Ethovision 7.0 program (Noldus Information Technology, USA).
# In addition, after finishing the Acquisition Test performed for four (4) days, the Probe test was carried out at fifth day. […] The whole test procedure was automatically recorded and analyzed with Noldus Ethovision 7.0 program (Noldus Information Technology, USA).
# transferrin endocytosis = test: Transferrin endocytosis (confocal microscopy); type: cell-based, human; conditions: 1 uM, 10, 30, 60 min at 37° C.
# Method: The reduced endocytosis rate may be caused by total reduction of endocytosis other than the specific reduction of APP endocytosis rate, because many proteins other than APP can be modified to include the O-glycosylation and the like, by Justicidin A. Thus, the effect of Justicidin A to transferrin, internalized by clathrin-dependent endocytosis like APP was measured, in order to identify selectivity of reducing of APP endocytosis rate by O-glycosylation.
# 5×10^5 cells of HeLa cell line transfected with amyloid precursor protein (APP) same as above, incubated for 24 hrs, 1 uM Justicidin A treated at 4° C. for 45 min. Then, transferrin was fluorescent-labeled by treating Alexa Fluor 488 conjugated transferrin (25 ug/ml concentration, #T13342, Invitrogen). Transferrin endocytosis was progressed depending on the incubation time 10, 30, 60 min at 37° C., then remained transferrin was washed out by treating pH 5.5 buffer (0.1M sodium acetate, 0.05M NaCl) to cell surface for 5 min
# Intracellular location of transferrin was measured by confocal microscopy (LSM510, Zeiss, Germany) at 488 nm.
smiles,measurement,setting,value
COc1cc2c(OC)c3c(c(-c4ccc5c(c4)OCO5)c2cc1OC)C(=O)OC3 [Justicidin A],memory and learning ability (Memory Index),male ICR mouse [1],showed high memory and learning ability
same,"inhibition of beta-amyloid (Aβ40, Aβ42) formation",[2],"inhibited the beta-amyloid (Aβ40, Aβ42) formation at a concentration-dependent manner"
same,memory and learning ability (acquisition and probe test),male ICR mouse [3],equivalent or higher memory and learning ability
same,transferrin endocytosis,transferrin endocytosis,no effect of Justicidin A to transferrin endocytosis
